Reference: patent US6706747B2, “Conformationally rigid bicyclic and adamantane derivatives useful as α2-adrenergic blocking agents” (Allergan, Inc., priority 1994, dated 2004)
Like-named read-outs stand apart in the source and are kept apart here.

Experiments:
[1] = target: T1, human α2A (CHO-C10) receptor (Homo sapiens, UniProt P08913); assay: Radioligand binding, [3H]rauwolscine, CHO-C10 cell membranes; conditions: CHO-C10, 22° C., 30 minutes
T1 construct: expressed in transfected cells; host or cells: CHO (CHO-C10)
T1 sequence (P08913 1-465): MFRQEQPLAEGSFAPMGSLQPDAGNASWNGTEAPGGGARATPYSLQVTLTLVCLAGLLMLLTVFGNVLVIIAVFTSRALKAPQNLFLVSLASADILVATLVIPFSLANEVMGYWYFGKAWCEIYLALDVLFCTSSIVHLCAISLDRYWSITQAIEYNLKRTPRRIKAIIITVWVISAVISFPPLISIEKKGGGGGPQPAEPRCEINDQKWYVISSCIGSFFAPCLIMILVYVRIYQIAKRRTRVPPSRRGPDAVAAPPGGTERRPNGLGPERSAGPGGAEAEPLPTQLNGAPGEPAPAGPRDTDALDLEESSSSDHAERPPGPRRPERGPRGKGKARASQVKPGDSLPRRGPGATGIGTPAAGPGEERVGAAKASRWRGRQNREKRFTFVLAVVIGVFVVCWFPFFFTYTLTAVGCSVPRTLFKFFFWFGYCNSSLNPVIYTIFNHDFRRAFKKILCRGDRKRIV
Procedure: (§1) Cell preparation: HT-29 and chinese hamster ovary (CHO) cells expressing the human α2A (CHO—C10) receptor and CHO cells (CHO—RNG) expressing the rat α2B adrenoceptor were grown to near confluency in Dulbecco's modified Eagle's medium supplemented with 10% fetal bovine serum using standard cell culture methods. Cells were harvested by scraping and placed into cold buffer of the following composition: 50 mM Tris-HCl, 5 mM EDTA, pH 7.4). Cells were then homogenized with a Polytron homogenizer for 2×10 secs at setting # 7, arid centrifuged for 20 minutes at 49,000×g. The pellet fraction was washed (resuspended in Tris-HCl, pH 8 buffer and centrifuged for 15-20 minutes at 49,000×g) 2 times and stored at −100° C. until binding assay.
(§2) Binding studies: The radioligands [^3H]rauwolscine (specific activity 80 Ci/mmol) and [^3H]prazosin (specific activity 76 Ci/mmol) were obtained from New England Nuclear, Boston, Mass. Frozen membrane pellet was resuspended in 25 mM glycine/glycine, pH 7.4 and incubated with radioligand under the following conditions: CHO—C10, CHO—RNG, HT-29-[^3H]rauwolscine, 22° C., 30 minutes; RKC-[^3H]rauwolscine, 0° C., 120 minutes; and, HCC-[^3H]prazosin, 22° C., 30 minutes in a final volume of 500 μl. At the end of the incubation period, the samples were filtered through glass fiber filters (Whatman GF/B) in a 96 well cell harvester and rapidly washed four times with 4 ml of ice-cold 50 mM, Tris-HCl buffer. The filters were then oven dried and transferred to scintillation vials containing 5 ml of Beckman's Ready Protein® scintillation cocktail for counting. […] Protein concentrations were determined with a protein assay kit from Bio Rad. Binding isotherms, equilibrium dissociation and affinity constants were analyzed and determined by the non-linear least squares curve fitting programs AccuFit Competition/Saturation by Beckman.
(§3) Frozen membrane pellet was resuspended either 50 mM tris, 2 mM EGTA, 1 mM MgCl2, pH7.5 (RbKC, RbICB-[^3H]brimonidine); 50 mM tris, 0.5 mM EDTA, 5 mM NaCl, pH 7.7 (RbICB-[^3H]rauwolscine); 25 mM glycine/glycine, pH 7.4 (RtKC, CHO—C10, CH—RNG, HT-29, HCC) or 50 mM tris, 0.1 mM MnCl2, pH7.7 (RtCC). Membrane protein homogenate (75-200 μg) was incubated with radioligand under the following conditions: RbKC and RbICB-[^3H]rauwolscine, 22° C., 45 minutes; RtCC and RbICB-[^3H]brimondine, 22° C., 90 minutes; CHO—C10, CHO—RNG and HT-29-[^3H]rauwolscine, 22° C., 30 minutes; HCC—[^3H]prazosin, 22° C., 30 minutes; and, in a final volume of 250 or 500 μl. At the end of the incubation period, the samples were filtered through glass fiber filters (Whatman GF/B) in a 24 or 96 well cell harvester and rapidly washed four times with 4 mls of iced-cold 50 mM Tris-HCl buffer. The filters were then oven dried and transferred to scintillation vials containing 10 mls of, Beckman's Ready Protein® scintillation cocktail for counting. […] Protein concentrations were determined with a protein assay kit from Bio Rad. Binding isotherms, equilibrium dissociation and affinity constants were analyzed and determined by the non-linear least squares curve fitting programs EBDA (BioSoft) or AccuFit Competition/Saturation by Beckman.
(§4) Cell preparation: Chinese hamster ovary (CHO) cells expressing the human α2A (CHO—C10) and the rat α2B (CHO—RNG) adrenoceptors were grown to near confluency in Dulbecco's modified Eagle's medium supplemented with 10% fetal bovine serum using standard cell culture methods. Cells were harvested by scraping and placed into cold buffer of the following composition: 50 mM Tris-HCl, 5 mM EDTA, pH 7.4). Cells were then homogenized with a Polytron homogenizer for 2×10 secs at setting #7, and centrifuged for 20 minutes at 49,000×g.

[2] = target: α1; assay: Radioligand binding, [3H]prazosin, human cerebral cortex (HCC) membranes; conditions: 22° C., 30 minutes
Procedure: Tissue preparation: Membrane suspensions were prepared from human cerebral cortex (HCC) obtained from the UCI Organ and Tissue Bank and rat kidney cortex (RKC). Briefly, tissues (1 g) were homogenized in 25 ml of iced-cold 5 mM tris, pH 7.4 with a Polytron homogenizer for 30 secs at setting# 7, and centrifuged for. 10-12 minutes at 300×g at 4° C. The supernatant was filtered: through 2 layers of gauze and diluted 1:2 with 50 mM Tris-HCI buffer, pH 7.4, then centrifuged at 49,000×g for 20 minutes. The pellet fraction was washed 3 times (resuspended in Tris-HCl buffer and centrifuged for 20 minutes at 49,000×g). The pellet was then stored at −80° C. until the binding assay.
as §2, §3
The radioligands [^3H]rauwolscine (specific activity 80 Ci/mmol) and [^3H]prazosin (specific activity 76 Ci/mmol) were obtained from New England Nuclear, Boston, Mass. Frozen membrane pellet was resuspended in 25 mM glycine/glycine, pH 7.4 and incubated with radioligand under the following conditions: CHO—C10, CHO—RNG-[^3H]rauwolscine, 22° C., 30 minutes; and, HCC—[^3H]prazosin, 22° C., 30 minutes in a final volume of 500 ul.

[3] = target: T2, rat α2B adrenoceptor (CHO-RNG) (Rattus norvegicus, UniProt P19328); assay: Radioligand binding, [3H]rauwolscine, CHO-RNG cell membranes; conditions: 22° C., 30 minutes
T2 construct: expressed in transfected cells; host or cells: CHO (CHO-RNG)
T2 sequence (P19328 1-453): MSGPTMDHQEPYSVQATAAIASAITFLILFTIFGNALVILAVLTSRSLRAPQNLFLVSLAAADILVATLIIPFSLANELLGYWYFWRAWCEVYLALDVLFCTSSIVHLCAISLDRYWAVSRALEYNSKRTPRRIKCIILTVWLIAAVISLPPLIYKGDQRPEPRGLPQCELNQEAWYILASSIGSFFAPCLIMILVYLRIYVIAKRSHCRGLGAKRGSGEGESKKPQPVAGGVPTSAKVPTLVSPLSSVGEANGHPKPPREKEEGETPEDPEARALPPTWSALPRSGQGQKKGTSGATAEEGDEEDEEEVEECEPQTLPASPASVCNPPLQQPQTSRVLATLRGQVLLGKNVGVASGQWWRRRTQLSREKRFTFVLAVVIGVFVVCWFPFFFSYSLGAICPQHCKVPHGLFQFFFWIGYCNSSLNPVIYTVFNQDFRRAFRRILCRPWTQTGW
Procedure: as §1, §2, §3, §4

[4] = read-out: Ki (nM) α2A (CHO-C10)
[5] = read-out: Ki (nM) α2B (CHO-RNG)

Row | Ki [1, 4] | Ki [2] | Ki [3, 5] | Compound | Ki ([1]; Ki (nM) α2A (CHO-C10)) | Ki ([3]; Ki (nM) α2B (CHO-RNG))
1 | 23300 nM | > 100000 nM | 20900 nM | CC(C)C1C2CCC(C2)C1N (centres unmarked) | – | –
2 | 4.2 nM | > 10000 nM | 11.5 nM | C1COC(NC2CC3CCC2C3)=N1 (centres unmarked) | – | –
3 | 0.6 nM | 1600 nM | 8.3 nM | CCCC1CCCCC1NC1=NCCO1 (centres unmarked) | – | –
4 | 1.1 nM | 1860 nM | 4.6 nM | c1cc2c(cc1C1C3CCC(C3)C1NC1=NCCO1)OCO2 (centres unmarked) | – | –
5 | – | – | – | c1ccc(C2C3CCC(C3)C2NC2=NCCN2)cc1 (centres unmarked) | 14.3 nM | 72 nM
6 | 25 nM | 8600 nM | 256 nM | CCCC1C2CCC(C2)C1NC1=NCCO1 (centres unmarked) [drawing 17] | – | –
7 | 102 nM | > 10000 nM | 358 nM | C1COC(NC23CC4CC(CC(C4)C2)C3)=N1 [drawing 26] | – | –
8 | 9.8 nM | 8850 nM | 28.1 nM | CCCC1C2CCC(C2)C1NC1=NCCO1 (centres unmarked) [drawing 18] | – | –
9 | 119 nM | 32500 nM | 770 nM | C1COC(NC2CC3CCC2CC3)=N1 (centres unmarked) | – | –
10 | 67200 nM | > 100000 nM | 57100 nM | CCC1C2CCC(C2)C1N (centres unmarked) | – | –
11 | 59 nM | 24800 nM | 616 nM | CCC1C2CCC(C2)C1NC1=NCCO1 (centres unmarked) | – | –
12 | 368 nM | > 10000 nM | 1930 nM | CC1(C)C2CCC1(C)C(NC1=NCCO1)C2 (centres unmarked) | – | –
13 | 352 nM | 35000 nM | 1840 nM | C1COC(NC23CC4CC(CC(C4)C2)C3)=N1 [drawing 27] | – | –

Row | Compound | Ki [1, 4] | Ki [2] | Ki [3, 5] | Ki ([1]; Ki (nM) α2A (CHO-C10)) | Ki ([3]; Ki (nM) α2B (CHO-RNG))
14 | c1ccc(C2C3CCC(C3)C2NC2=NCCO2)cc1 (centres unmarked) [drawing 10] | 1.9 nM | 73 nM | 27 nM | – | –
15 | c1ccc(C2C3CCC(C3)C2NC2=NCCO2)cc1 (centres unmarked) [drawing 7] | 3.1 nM | 1860 nM | 7.8 nM | – | –
16 | NC1C2CCC(C2)C1c1ccccc1 (centres unmarked) | 6570 nM | 11000 nM | 6100 nM | – | –
17 | c1ccc(CCNC2=NCCO2)cc1 | 1750 nM | 11100 nM | 4170 nM | – | –
